Measured values reported in ChEMBL document CHEMBL4613325, “Design of Development Candidate eFT226, a First in Class Inhibitor of Eukaryotic Initiation Factor 4A RNA Helicase” (J Med Chem, 2020).
pIC50: −log10 of the molar value. Activity calls are given as the source filed them. The rule behind the calls is not given here.

What was measured:
[1] = test system: MDA-MB-231; test: Antiproliferative activity against human MDA-MB-231 cells assessed as reduction in cell proliferation incubated for 72 hrs by CellTiter-Glo reagent based assay; type: functional; conditions: MDA-MB-231, 72 h
[2] = Apparent permeability from apical to basolateral side in human Caco2 cells at 10 uM by LC/MS/MS analysis
[3] = Efflux ratio in human Caco2 cells at 10 uM by LC/MS/MS analysis
[4] = Stability in rat liver microsomes assessed as parent compound remaining at 1 uM pre-incubated for 10 mins before NADPH addition and measured after 30 mins by LC/MS/MS analysis; type: ADME, Microsome; conditions: read-out: Stability
[5] = Stability in human liver microsomes assessed as parent compound remaining at 1 uM pre-incubated for 10 mins before NADPH addition and measured after 30 mins by LC/MS/MS analysis; type: ADME, Microsome; conditions: read-out: Stability
[6] = molecular target: hERG (KCNH2) (Homo sapiens, UniProt Q12809); test: Inhibition of human ERG at 10 uM by patch-clamp assay relative to control
hERG (KCNH2), sequence (Q12809 whole entry): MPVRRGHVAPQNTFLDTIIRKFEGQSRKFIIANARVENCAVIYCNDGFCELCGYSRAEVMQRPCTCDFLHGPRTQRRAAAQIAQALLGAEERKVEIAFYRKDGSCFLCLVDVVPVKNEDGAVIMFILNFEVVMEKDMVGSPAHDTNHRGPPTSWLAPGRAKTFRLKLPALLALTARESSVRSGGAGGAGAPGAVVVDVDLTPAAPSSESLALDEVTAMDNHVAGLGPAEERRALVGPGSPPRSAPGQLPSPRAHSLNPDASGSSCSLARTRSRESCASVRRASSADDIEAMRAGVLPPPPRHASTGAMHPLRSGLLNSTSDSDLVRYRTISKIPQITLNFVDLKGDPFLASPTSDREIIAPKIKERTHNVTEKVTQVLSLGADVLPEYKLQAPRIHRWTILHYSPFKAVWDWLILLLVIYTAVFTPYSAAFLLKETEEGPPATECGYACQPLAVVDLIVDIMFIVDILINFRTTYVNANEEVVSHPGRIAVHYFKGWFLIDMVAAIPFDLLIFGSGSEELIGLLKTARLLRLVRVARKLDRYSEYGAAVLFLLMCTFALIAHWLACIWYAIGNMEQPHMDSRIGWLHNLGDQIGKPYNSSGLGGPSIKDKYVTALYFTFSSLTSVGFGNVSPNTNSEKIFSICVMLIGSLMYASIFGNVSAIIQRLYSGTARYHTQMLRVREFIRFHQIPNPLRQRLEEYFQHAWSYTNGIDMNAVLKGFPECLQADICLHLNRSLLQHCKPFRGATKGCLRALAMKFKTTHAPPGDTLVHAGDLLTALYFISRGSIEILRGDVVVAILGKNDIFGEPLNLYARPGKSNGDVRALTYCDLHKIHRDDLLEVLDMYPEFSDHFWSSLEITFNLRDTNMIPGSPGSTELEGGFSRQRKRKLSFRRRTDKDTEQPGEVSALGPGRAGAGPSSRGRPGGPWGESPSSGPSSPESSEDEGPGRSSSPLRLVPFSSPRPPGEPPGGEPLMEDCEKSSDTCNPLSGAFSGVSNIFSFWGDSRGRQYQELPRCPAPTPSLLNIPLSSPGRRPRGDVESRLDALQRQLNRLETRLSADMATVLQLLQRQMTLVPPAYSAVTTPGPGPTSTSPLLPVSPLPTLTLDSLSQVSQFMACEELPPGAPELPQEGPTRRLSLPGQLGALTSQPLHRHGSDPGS

[7] = physchem
[8] = molecular target: T1, Eukaryotic initiation factor 4A-I (Homo sapiens, UniProt P60842); test: Inhibition of eIF4A1 in human MDA-MB-231 cells assessed as inhibition of cellular-translation incubated for 4 hrs by specific tandem sequence motif repeat AGAGAG in 5'- UTR containing luciferase reporter gene assay; type: cell-based
T1 sequence (P60842 whole entry): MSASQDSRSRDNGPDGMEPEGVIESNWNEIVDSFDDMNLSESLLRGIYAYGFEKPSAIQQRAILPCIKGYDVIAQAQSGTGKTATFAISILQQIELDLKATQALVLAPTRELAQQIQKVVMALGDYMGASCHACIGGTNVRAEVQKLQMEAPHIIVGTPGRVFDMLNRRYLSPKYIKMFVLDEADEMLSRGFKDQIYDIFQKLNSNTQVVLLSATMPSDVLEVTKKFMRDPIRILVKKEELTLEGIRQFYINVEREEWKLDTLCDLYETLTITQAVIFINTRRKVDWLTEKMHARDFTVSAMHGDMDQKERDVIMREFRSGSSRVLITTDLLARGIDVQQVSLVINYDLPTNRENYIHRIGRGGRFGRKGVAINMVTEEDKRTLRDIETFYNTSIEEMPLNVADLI

[9] = molecular target: T1, Eukaryotic initiation factor 4A-I; test: Inhibition of eIF4A1 in human MDA-MB-231 cells assessed as inhibition of cellular-translation incubated for 4 hrs by specific tandem sequence motif repeat GGCGGC in 5'- UTR containing luciferase reporter gene assay; type: cell-based
[10] = molecular target: T1, Eukaryotic initiation factor 4A-I; test: Inhibition of eIF4A1 in human MDA-MB-231 cells assessed as inhibition of cellular-translation incubated for 4 hrs by specific tandem sequence motif repeat CCGCCG in 5'- UTR containing luciferase reporter gene assay; type: cell-based
[11] = molecular target: T1, Eukaryotic initiation factor 4A-I; test: Inhibition of eIF4A1 in human MDA-MB-231 cells assessed as inhibition of cellular-translation incubated for 4 hrs by specific tandem sequence motif repeat CAACAA in 5'- UTR containing luciferase reporter gene assay; type: cell-based
[12] = molecular target: T1, Eukaryotic initiation factor 4A-I; test: Binding affinity to full length recombinant eIF4A1 (unknown origin) assessed as induction ternary complex formation in presence of AGAGAG by measuring half life for AGAGAG + ATP complex formation SPR assay
[13] = molecular target: T1, Eukaryotic initiation factor 4A-I; test: Binding affinity to full length recombinant eIF4A1 (unknown origin) assessed as induction ternary complex formation in presence of AGAGAG by measuring half life for AGAGAG + AMP-PNP complex formation SPR assay
[14] = molecular target: T1, Eukaryotic initiation factor 4A-I; test: Binding affinity to full length recombinant eIF4A1 (unknown origin) assessed as induction ternary complex formation in presence of DNA oligo sequences by measuring Kd for DNA oligo sequences + ATP complex formation SPR assay
[15] = molecular target: T1, Eukaryotic initiation factor 4A-I; test: Inhibition of eIF4A1 in human HAP1 cells assessed as reduction in c-MYC protein expression at 5 to 50 nM incubated for 24 hrs by Western blot analysis; type: cell-based
[16] = molecular target: T1, Eukaryotic initiation factor 4A-I; test: Inhibition of eIF4A1 in human HAP1 cells assessed as reduction in MCL-1 protein expression at 5 to 50 nM incubated for 24 hrs by Western blot analysis; type: cell-based
[17] = molecular target: T1, Eukaryotic initiation factor 4A-I; test: Inhibition of eIF4A1 in human HAP1 cells assessed as reduction in Cyclin D1 protein expression at 5 to 50 nM incubated for 24 hrs by Western blot analysis; type: cell-based
[18] = test system: HAP1; test: Inhibition of eIF4A1 F163L mutant in human HAP1 cells assessed as reduction in c-MYC protein expression at 5 to 50 nM incubated for 24 hrs by Western blot analysis; type: cell-based
[19] = test system: HAP1; test: Inhibition of eIF4A1 F163L mutant in human HAP1 cells assessed as reduction in MCL-1 protein expression at 5 to 50 nM incubated for 24 hrs by Western blot analysis; type: cell-based
[20] = test system: HAP1; test: Inhibition of eIF4A1 F163L mutant in human HAP1 cells assessed as reduction in Cyclin D1 protein expression at 5 to 50 nM incubated for 24 hrs by Western blot analysis; type: cell-based
[21] = organism: Homo sapiens; test: Inhibition of L-type calcium channel diltiazem binding site (unknown origin) at 10 uM relative to control
[22] = test system: MDA-MB-231; test: Induction of cell cycle arrest in human MDA-MB-231 cells assessed as increase in G2/M population incubated for 24 hrs by LIVE/DEAD fixable dead cell staining based flow cyclometry; type: functional
[23] = test system: MDA-MB-231; test: Induction of apoptosis in human MDA-MB-231 cells assessed as increase in apoptotic cells level incubated for 24 hrs by annexin V and propidium iodide staining based flow cyclometry; type: functional, cell-based
[24] = test system: MDA-MB-231; test: Induction of apoptosis in human MDA-MB-231 cells assessed as increase in dead cells level incubated for 24 hrs by annexin V and propidium iodide staining based flow cyclometry; type: functional, cell-based
[25] = molecular target: T1, Eukaryotic initiation factor 4A-I; test: Inhibition of eIF4A1 in human MDA-MB-231 cells assessed as reduction in cyclin D1 protein expression at 10 to 100 nM incubated for 24 hrs by Western blot analysis; type: cell-based
[26] = molecular target: T1, Eukaryotic initiation factor 4A-I; test: Inhibition of eIF4A1 in human MDA-MB-231 cells assessed as reduction in BCL2 protein expression at 10 to 100 nM incubated for 24 hrs by Western blot analysis; type: cell-based
[27] = Clearance in iv dosed rat; type: ADME, organism-based; conditions: in vivo
[28] = Volume of distribution at steady state in iv dosed rat; type: ADME, organism-based; conditions: in vivo, read-out: Vdss
[29] = Half life in iv dosed rat; type: ADME, organism-based; conditions: in vivo
[30] = AUC in iv dosed rat; type: ADME, organism-based; conditions: in vivo
[31] = molecular target: Voltage-gated inwardly rectifying potassium channel KCNH2 (Homo sapiens, UniProt Q12809); test: Inhibition of human ERG by patch-clamp assay
Voltage-gated inwardly rectifying potassium channel KCNH2, sequence (Q12809 whole entry): as the sequence (Q12809 whole entry) above

Row | Compound | pIC50 [1] | Papp A→B at 10 µM ([2]; Caco-2) | efflux ratio at 10 µM ([3]; Caco-2) | remaining at 0.5 h, 1 µM [4] | remaining at 0.5 h, 1 µM [5] | inhibition at 10 µM [6] | also measured
1 | COc1cncc2c1[C@]1(O)[C@H](O)[C@H](CN(C)C(C)(C)C)[C@@H](c3ccccc3)[C@]1(c1ccc(C#N)cc1)O2 | 6.85 | 1 nm/s | 57 | 77% | 61% | 16% | –
2 | CCN(CC)C[C@H]1[C@@H](O)[C@@]2(O)c3c(OC)cncc3O[C@@]2(c2ccc(C#N)cc2)[C@@H]1c1ccccc1 | 7.21 | 3 nm/s | 35 | 76% | 73% | 40% | –
3 | CNC[C@H]1[C@@H](O)[C@@]2(O)c3c(OC)cncc3O[C@@]2(c2ccc(C#N)cc2)[C@@H]1c1ccccc1 (racemic) | 6.32 | – | – | 90% | 98% | < 10% | Papp A→B at 10 µM ([2]; Caco-2, Papp): 3 nm/s; efflux ratio at 10 µM ([3]; Caco-2, Ratio): 3.9
4 | COc1cncc2c1[C@]1(O)[C@H](O)[C@H](C(=O)N(C)C)[C@@H](c3ccccc3)[C@]1(c1ccc(C#N)cc1)O2.Cl | – | – | – | – | – | – | solubility thermodynamic [7]: 0.22 mg/mL
5 | C[C@H]1C[C@@]2(O[C@H]3C[C@H]4[C@@H]5CC[C@H]6C[C@H](O)CC[C@]6(C)[C@H]5[C@@H](O)C[C@]4(C)[C@H]3[C@@]2(C)O)OC1(C)C [HIPPURISTANOL] | – | – | – | – | – | – | pIC50 [8]: 6.37; pIC50 [9]: 6.43; pIC50 [10]: 6.68; pIC50 [11]: 6.69
6 | COc1cncc2c1[C@]1(O)[C@H](O)[C@H](CN)[C@@H](c3ccccc3)[C@]1(c1ccc(C#N)cc1)O2 (racemic) | 6.68 | 1.1 nm/s | 4 | 104% | 106% | 11% | –
7 | COc1cncc2c1[C@]1(O)[C@H](O)[C@H](CN3CCOCC3)[C@@H](c3ccccc3)[C@]1(c1ccc(C#N)cc1)O2 | 6.92 | – | – | 52% | 40% | < 10% | Papp A→B at 10 µM ([2]; Caco-2, Papp): 15 nm/s; efflux ratio at 10 µM ([3]; Caco-2, Ratio): 5.3
8 | COc1cc2c(c(OC)n1)[C@]1(O)[C@H](O)[C@H](CN(C)C)[C@@H](c3ccccc3)[C@]1(c1ccc(C#N)cc1)O2 | – | – | – | – | – | – | T1/2 [12]: 1.32 min; T1/2 [13]: 0.642 h; Activity [14]: inactive; inhibition [8]: Dose-dependent effect; inhibition [9]: Dose-dependent effect; inhibition [10]: Dose-dependent effect; inhibition [11]: Dose-dependent effect; inhibition [15]: Dose-dependent effect; inhibition [16]: Dose-dependent effect; inhibition [17]: Dose-dependent effect; inhibition [18]: inactive; inhibition [19]: inactive; inhibition [20]: inactive; inhibition [21]: 54%; Activity [22]: Dose-dependent effect; Activity [23]: Dose-dependent effect; Activity [24]: Dose-dependent effect; inhibition [25]: Active; inhibition [26]: Active
9 | COc1nc(C#N)cc2c1[C@]1(O)[C@H](O)[C@H](CN(C)C)[C@@H](c3ccccc3)[C@]1(c1ccc(C#N)cc1)O2 | 7.82 | – | – | – | – | – | clearance [27]: 1.56 L/h/kg; Vd [28]: 10.3 L/kg; half-life [29]: 11 h; AUC [30]: 0.73 µg·h/mL
10 | COc1cc2c(c(OC)n1)[C@]1(O)[C@H](O)[C@H](CN(C)C)[C@@H](c3ccccc3)[C@]1(c1ccc(C#N)cc1)O2.Cl | – | – | – | – | – | – | solubility thermodynamic [7]: > 20 mg/mL
11 | COc1cncc2c1[C@]1(O)[C@H](O)[C@H](CN(C)CC(F)F)[C@@H](c3ccccc3)[C@]1(c1ccc(C#N)cc1)O2 | 6.60 | 26 nm/s | 3.2 | < 1% | 1% | 11% | –
12 | COc1cncc2c1[C@]1(O)[C@H](O)[C@H](CN(C)C)[C@@H](c3ccccc3)[C@]1(c1ccc(C#N)cc1)O2 (stereo in doubt; (-)-37) | 7.27 | – | – | – | – | – | Papp A→B at 10 µM ([2]; Caco-2, Papp): 2.1 nm/s; efflux ratio at 10 µM ([3]; Caco-2, Ratio): 22; pIC50 [31]: < 5.00; clearance [27]: 2.34 L/h/kg; Vd [28]: 5.2 L/kg; half-life [29]: 2.9 h; AUC [30]: 0.44 µg·h/mL
13 | COc1cncc2c1[C@]1(O)[C@H](O)[C@H](CN3CCC(F)(F)CC3)[C@@H](c3ccccc3)[C@]1(c1ccc(C#N)cc1)O2 | 6.80 | 48 nm/s | 1.7 | 42% | 45% | 30% | –
14 | COc1cncc2c1[C@]1(O)[C@H](O)[C@H](CCN(C)C)[C@@H](c3ccccc3)[C@]1(c1ccc(C#N)cc1)O2 (racemic) | 6.84 | 1 nm/s | 27 | 77% | 75% | 11% | –
15 | C[C@@H]1C[C@@H]([C@H](O)CC2CC(=O)NC(=O)C2)C(=O)[C@@H](C)C1 [CYCLOHEXIMIDE] | – | – | – | – | – | – | pIC50 [8]: 6.65; pIC50 [9]: 7.00; pIC50 [10]: 7.06; pIC50 [11]: 6.85
16 | COc1cncc2c1[C@]1(O)[C@H](O)[C@H](CN(C)C)[C@@H](c3ccccc3)[C@]1(c1ccc(C#N)cc1)O2.Cl | – | – | – | – | – | – | solubility thermodynamic [7]: > 20 mg/mL
17 | COc1cncc2c1[C@]1(O)[C@H](O)[C@H](C(=O)N(C)C)[C@@H](c3ccccc3)[C@]1(c1ccc(C#N)cc1)O2 | 7.48 | 6.5 nm/s | 5 | – | – | – | clearance [27]: 1.08 L/h/kg; Vd [28]: 1.1 L/kg; half-life [29]: 2 h; AUC [30]: 0.95 µg·h/mL
